Test results: US7265103B2, “Substituted amino isoxazoline derivatives and their use as anti-depressants” (Janssen Pharmaceutica NV., priority 2002, dated 2007)

Tests used:
hα2C receptor = biological target: T1, hα2C receptor (Homo sapiens, UniProt P18825); test: Radioligand binding experiment for α2C-adrenergic receptor ([3H]-raulwolscine); conditions: CHO cell membranes with human α2C receptor, [3H]raulwolscine 1 nM; read-out: pIC50 α2C (converted)
T1 construct: expressed in transfected cells; host or cells: CHO cells
T1 sequence (P18825 1-462): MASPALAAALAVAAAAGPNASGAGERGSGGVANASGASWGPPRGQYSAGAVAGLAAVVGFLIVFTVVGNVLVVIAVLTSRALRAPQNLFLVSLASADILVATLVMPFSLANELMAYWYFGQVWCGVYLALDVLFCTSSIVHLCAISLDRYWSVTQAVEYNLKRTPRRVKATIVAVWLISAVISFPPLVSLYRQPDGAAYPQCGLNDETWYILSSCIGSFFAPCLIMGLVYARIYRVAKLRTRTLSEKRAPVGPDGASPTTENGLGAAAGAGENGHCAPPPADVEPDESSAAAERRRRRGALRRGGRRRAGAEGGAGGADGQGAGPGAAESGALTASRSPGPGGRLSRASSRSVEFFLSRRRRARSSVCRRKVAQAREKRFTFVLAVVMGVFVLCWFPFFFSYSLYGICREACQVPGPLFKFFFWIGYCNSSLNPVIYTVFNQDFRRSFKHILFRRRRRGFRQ
Protocol: (§1) The interaction of the compounds of Formula (I) with hα2-receptors and h5-HT-transporters was assessed in in vitro radioligand binding experiments. In general, a low concentration of a radioligand with a high binding affinity for a particular receptor or transporter is incubated with a sample of a tissue preparation enriched in a particular receptor or transporter or with a preparation of cells expressing cloned human receptors in a buffered medium. During the incubation, the radioligand binds to the receptor or transporter. When equilibrium of binding is reached, the receptor bound radioactivity is separated from the non-bound radioactivity, and the receptor- or transporter-bound activity is counted. The interaction of the test compounds with the receptor is assessed in competition binding experiments. Various concentrations of the test compound are added to the incubation mixture containing the receptor- or transporter preparation and the radioligand. The test compound in proportion to its binding affinity and its concentration inhibits binding of the radioligand. The radioligand used for hα2A, hα2B and hα2C receptor binding was [^3H]-raulwolscine and for the h5-HT transporter was [^3H]paroxetine.
(§2) CHO cells, stabile transfected with human adrenergic-α2A-, -α2B or α2C receptor cDNA, were cultured in Dulbecco's Modified Eagle's Medium (DMEM)/Nutrient mixture Ham's F12 (ratio 1:1)(Gibco, Gent-Belgium) supplemented with 10% heat inactivated fetal calf serum (Life Technologies, Merelbeke-Belgium) and antibiotics (100 IU/ml penicillin G, 100 μg/ml streptomycin sulphate, 110 μg/ml pyruvic acid and 100 μg/ml L-glutamine). One day before collection, cells were induced with 5 mM sodiumbutyrate. Upon 80-90% of confluence, cells were scraped in phosphate buffered saline without Ca^2+ and Mg^2+ and collected by centrifugation at 1500×g for 10 min. The cells were homogenised in Tris-HCl 50 mM using an Ultraturrax homogenizer and centrifuged for 10 min at 23,500×g. The pellet was washed once by resuspension and rehomogenization and the final pellet was resuspended in Tris-HCl, divided in 1 ml aliquots and stored at −70° C.
(§3) Membranes were thawed and re-homogenized in incubation buffer (glycylglycine 25 mM, pH 8.0). In a total volume of 500 μl, 2-10 μg protein was incubated with [^3H]raulwolscine (NET-722) (New England Nuclear, USA) (1 nM final concentration) with or without competitor for 60 min at 25° C. followed by rapid filtration over GF/B filter using a Filtermatel 96 harvester (Packard, Meriden, Conn.). Filters were rinsed extensively with ice-cold rinsing buffer (Tris-HCl 50 mM pH 7.4). Filter-bound radioactivity was determined by scintillation counting in a Topcount (Packard, Meriden, Conn.) and results were expressed as counts per minute (cpm). Non-specific binding was determined in the presence of 1 μM oxymetazoline for hα2A- and hα2B receptors and 1 μM spiroxatrine for hα2C receptors.
(§4) Data from assays in the presence of compound were calculated as a percentage of total binding measured in the absence of test compound. Inhibition curves, plotting percent of total binding versus the log value of the concentration of the test compound, were automatically generated, and sigmoidal inhibition curves were fitted using non-linear regression. The pIC50 values of test compounds were derived from individual curves.

hα2A receptor = biological target: T2, hα2A receptor (Homo sapiens, UniProt P08913); test: Radioligand binding experiment for α2A-adrenergic receptor ([3H]-raulwolscine); conditions: CHO cell membranes with human α2A receptor, [3H]raulwolscine 1 nM; read-out: pIC50 α2A (converted)
T2 construct: expressed in transfected cells; host or cells: CHO cells
T2 sequence (P08913 1-465): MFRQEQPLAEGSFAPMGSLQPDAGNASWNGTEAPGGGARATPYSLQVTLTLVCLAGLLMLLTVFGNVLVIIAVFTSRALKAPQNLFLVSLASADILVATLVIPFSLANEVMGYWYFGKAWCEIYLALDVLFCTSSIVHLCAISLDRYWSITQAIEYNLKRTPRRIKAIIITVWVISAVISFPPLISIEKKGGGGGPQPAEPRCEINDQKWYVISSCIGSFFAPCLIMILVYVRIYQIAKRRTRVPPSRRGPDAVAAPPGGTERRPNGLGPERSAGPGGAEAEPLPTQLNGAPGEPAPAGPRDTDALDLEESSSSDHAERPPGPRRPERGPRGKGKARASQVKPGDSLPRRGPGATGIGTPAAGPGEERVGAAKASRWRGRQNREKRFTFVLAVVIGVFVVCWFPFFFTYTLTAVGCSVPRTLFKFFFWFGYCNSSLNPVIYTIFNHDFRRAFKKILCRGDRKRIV
Protocol: as §1, §2, §3, §4

h5-HT transporter = biological target: T3, h5-HT transporter (Homo sapiens, UniProt P31645); test: Radioligand binding experiment for 5-HT transporter ([3H]paroxetine); conditions: human platelet membranes, [3H]paroxetine 0.5 nM
T3 construct: Human platelet membranes (Oceanix Biosciences Corporation, Hanover, Md., USA) were thawed; tissue Oceanix Biosciences Corporation; host or cells: human platelet membranes
Protocol: as §1
Human platelet membranes (Oceanix Biosciences Corporation, Hanover, Md., USA) were thawed, diluted in buffer (Tris-HCl 50 mM, 120 mM NaCl and 5 mM KCl) and quickly (max 3 s) homogenised with an Ultraturrax homogenizer. In a total volume of 250 μL, 50-100 μg protein was incubated with [^3H]paroxetine (NET-869) (New England Nuclear, USA) (0.5 nM final concentration) with or without competitor for 60 min at 25° C. Incubation was stopped by rapid filtration of the incubation mixture over GF/B filters, pre-wetted with 0.1% polyethyleneamine, using a Filtermatel 96 harvester (Packard, Meriden, Conn.). Filters were rinsed extensively with ice-cold buffer and radioactivity on the filters was counted in a Topcount liquid scintillation counter (Packard, Meriden, Conn.). Data were expressed as cpm. Imipramine (at 1 μM final concentration) was used to determine the non-specific binding.
as §4

T3 sequence (P31645 whole entry): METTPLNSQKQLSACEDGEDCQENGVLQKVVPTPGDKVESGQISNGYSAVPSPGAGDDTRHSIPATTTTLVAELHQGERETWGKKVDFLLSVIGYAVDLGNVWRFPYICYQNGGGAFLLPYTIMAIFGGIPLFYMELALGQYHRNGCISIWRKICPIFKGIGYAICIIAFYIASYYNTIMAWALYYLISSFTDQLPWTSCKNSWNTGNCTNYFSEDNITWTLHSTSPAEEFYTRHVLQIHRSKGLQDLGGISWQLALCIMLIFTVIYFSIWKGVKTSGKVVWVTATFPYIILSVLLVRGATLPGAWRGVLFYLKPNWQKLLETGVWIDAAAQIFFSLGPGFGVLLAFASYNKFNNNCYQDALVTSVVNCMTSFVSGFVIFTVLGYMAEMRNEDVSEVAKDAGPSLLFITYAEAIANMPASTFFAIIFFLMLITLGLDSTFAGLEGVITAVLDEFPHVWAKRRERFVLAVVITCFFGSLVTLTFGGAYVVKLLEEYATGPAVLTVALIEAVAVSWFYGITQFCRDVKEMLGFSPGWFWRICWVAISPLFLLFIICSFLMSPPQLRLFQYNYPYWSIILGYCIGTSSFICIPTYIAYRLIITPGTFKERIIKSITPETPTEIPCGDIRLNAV

| Structure (SMILES) | IC50 (hα2C receptor) [nM] | IC50 (hα2A receptor) [nM] | IC50 (h5-HT transporter) [nM] |
| --- | --- | --- | --- |
| CC(=Cc1ccc(F)cc1)CN1CCN(CC2ON=C3c4ccc(NC(C)CO)cc4OCC32)CC1 (stereo not drawn) [Compound 134] | 126 | 63.1 | 126 |
| CC(=Cc1ccc(F)cc1)CN1CCN(CC2ON=C3c4ccc(N(C)CCNCC5CC5)cc4OCC32)CC1 (stereo not drawn) [Compound 118] | 3.16 | 12.6 | 3.16 |
| COc1cc2c(cc1NCC1CC1C)OCC1C2=NOC1CN1CCN(CC(C)=Cc2ccc(F)cc2)CC1 (stereo not drawn) [Compound 126] | 126 | 63.1 | 126 |
| CC(=Cc1ccccc1)CN1CCN(CC2ON=C3c4ccc(N(C)CCO)cc4OCC32)CC1 (stereo not drawn) [Compound 31] | 1.26 | 1.26 | 25.1 |
| CC(=Cc1ccc(F)cc1)CN1CCN(CC2ON=C3c4ccc(N(C)CCOC(=O)C5CCC5)cc4OCC32)CC1 (stereo not drawn) [Compound 108] | 50.1 | 200 | 79.4 |
| CCC(C)CNc1cc2c(cc1OC)C1=NOC(CN3CCN(CC(C)=Cc4ccc(F)cc4)CC3)C1CO2 (stereo not drawn) [Compound 104] | 126 | 126 | 316 |
| CCC(C)(C)NCCN(C)c1ccc2c(c1)OCC1C2=NOC1CN1CCN(CC(C)=Cc2ccc(F)cc2)CC1 (stereo not drawn) [Compound 120] | 6.31 | 39.8 | 2.51 |
| CC(=Cc1ccccc1)CN1CCN(CC2ON=C3c4ccc(N(C)CCO)cc4OCC32)CC1 (single isomer, unassigned) [Compound 34] | 0.398 | 2 | 63.1 |
| CC(=Cc1ccc(F)cc1)CN1CCN(CC2ON=C3c4ccc(N5CCCCCC5)cc4OCC32)CC1 (stereo not drawn) [Compound 125] | 158 | 200 | 158 |
| CCC(C)Nc1cc2c(cc1OC)C1=NOC(CN3CCN(CC(C)=Cc4ccc(F)cc4)CC3)C1CO2 (stereo not drawn) [Compound 99] | 50.1 | 50.1 | 158 |
| CCNc1cc2c(cc1OC)C1=NOC(CN3CCN(CC(C)=Cc4ccc(F)cc4)CC3)C1CO2 (stereo not drawn) [Compound 105] | 31.6 | 50.1 | 20 |
| CC(=O)N1CCOc2cc3c(cc21)OCC1C3=NOC1CN1CCN(C/C(C)=C/c2ccccc2)CC1 (stereo not drawn) [Compound 12] | 1 | 2 | 31.6 |
| C/C(=C\c1ccccc1)CN1CCN(CC2ON=C3c4ccc(NC(=O)[C@@H]5CCCN5)cc4OCC32)CC1 (stereo partly drawn) [Compound 57] | 0.631 | 5.01 | 25.1 |
| CC(=Cc1ccc(F)cc1)CN1CCN(CC2ON=C3c4ccc(N5CCNCC5)cc4OCC32)CC1 (stereo not drawn) [Compound 136] | 5.01 | 39.8 | 7.94 |
| CC(=Cc1ccc(F)cc1)CN1CCN(CC2ON=C3c4ccc(N(C)CCN(C)C)cc4OCC32)CC1 (stereo not drawn) [Compound 23] | 2 | 10 | 5.01 |
